The test system of one data set is GS224. Briefly: DBD dose-response IC50, patient derived GSC culture. In kind it is cell-based. The conditions noted are these: Homo sapiens. The protocol:
(§1) To assess the effects of crystalline DBD polymorph on the growth of patient derived GSC's (Glioma serum-free Stem-cell like cultures), dose-response assays were performed on twenty cultures. […] A dose-dependent decrease in viability was found, and the IC50 values of could be calculated using linear regression analysis. Specifically, looking at Table 1, a high variation of different IC50 values is seen in this panel of patient derived GSC's. In addition, no correlation is seen between the MGMT promotor methylation status and the amount of the IC50 value.

The test system of another data set is GS279peri. The data set is described as above. In kind it is cell-based. Particulars: Homo sapiens. The protocol:
as §1

For another data set, the system named is GS184. The data set is described as above. The conditions noted are these: Homo sapiens. In kind it is cell-based. The method, then:
as §1

Another data set deals with GS245. The description is as above. It is filed as cell-based. Particulars: Homo sapiens. The method, then: as §1
In the next data set the test system is GS186peri. The data set is described as above. In kind it is cell-based. The conditions noted are these: Homo sapiens. The method, then:
as §1

In the next data set the test system is GS257. The description is as above. In kind it is cell-based. Particulars: Homo sapiens. The method, then: as §1
For another data set, the system named is GS249. Described as above. The conditions noted are these: Homo sapiens. In kind it is cell-based. The method, then:
as §1

The next data set has as its system GS203. The description is as above. It is filed as cell-based. The conditions noted are these: Homo sapiens. The method, then: as §1
The subject of another data set is GS304. Described as above. In kind it is cell-based. The conditions noted are these: Homo sapiens. The protocol: as §1
Another data set concerns GS281. Described as above. It is filed as cell-based. Particulars: Homo sapiens. The method, then: as §1
In another data set the test system is GS323peri. The data set is described as above. It is filed as cell-based. The conditions noted are these: Homo sapiens, 120 h, passage 17, day 5, read-out: IC50 5 d. The protocol:
as §1

For another data set, the system named is GS104peri. The data set is described as above. The conditions noted are these: Homo sapiens. In kind it is cell-based. The protocol:
as §1

The test system of the next data set is GS289. The description is as above. In kind it is cell-based. The conditions noted are these: Homo sapiens. The method, then:
as §1

A further data set has as its system GS261. The description is as above. It is filed as cell-based. Particulars: Homo sapiens. The method, then:
as §1

A further data set relates to GS186core. The description is as above. It is filed as cell-based. The conditions noted are these: Homo sapiens. The method, then: as §1
A further data set deals with GS102peri. Described as above. The conditions noted are these: Homo sapiens. It is filed as cell-based. The method, then:
as §1

The next data set concerns GS359. Described as above. In kind it is cell-based. The conditions noted are these: Homo sapiens. The protocol: as §1
The next data set deals with GS324core. The description is as above. It is filed as cell-based. Particulars: Homo sapiens. The protocol: as §1
In another data set the test system is GS279core. The data set is described as above. It is filed as cell-based. Particulars: Homo sapiens, 120 h, read-out: IC50 5 d. The method, then:
as §1

The subject of another data set is GS365. Described as above. In kind it is cell-based. Particulars: Homo sapiens. The protocol: as §1
The conditions of data set [1]: Kellner et al., Nature (1967); cited from earlier work.
For data set [2] the following is noted: reported in the literature; cited from earlier work.
The test system of data set [3] is panel of 20 patient derived cell cultures. Briefly: DBD combination treatment, overall result over the panel. In kind it is cell-based, human. The protocol:
Crystalline DBD polymorph treatment was combined with chemotherapy, radiotherapy and targeted inhibitors to determine whether the crystalline DBD polymorph form could: enhance efficacy of the conventional therapies; enhance efficacy when combined with newer ‘targeted’ therapies; or would make (a subset of) cultures more sensitive to this treatment.
Therefore, cultures were treated with: • a.

The test system of the next data set is U373 glioma cell line. Briefly: Cell Titer-Glo viability, DBD concentration range. In kind it is cell-based, human. Particulars: 5 and 8 days. The protocol: (§2) These lines were seeded in triplicate in a 96-wells plate, in a dilution of 500 cells/well. […] FIGS. 1 and 2 show the histogram results of the two used glioma cell lines, T98 and U373. Specifically, the histograms are normalized in percentages, where the non-treated cells have a 100% survival. […] However, a concentration range between 1 and 100 μM was selected and was next tested on twenty patient-derived serum-free cell cultures.

The next data set concerns T98 glioma cell line. Briefly: Cell Titer-Glo viability, DBD concentration range. It is filed as cell-based, human. The conditions noted are these: 5 and 8 days. The protocol:
as §2

Where [4] appears, read: 120 h, passage 14, day 5, read-out: IC50 5 d.
The mark [5] stands for this setting: passage 14, day 8, read-out: IC50 8 d.

pIC50: −log10 of the molar value. Entries after “also recorded” stand apart in the source; their conditions may differ. Like-named read-outs stand apart in the source and are kept apart here.

Usually pIC50 stands for the negative decadic logarithm of the IC50, by convention in mol/L. As for `O[C@H]([C@H](O)[C@@H](O)CBr)[C@H](O)CBr` [DBD, 1,6-dibromo-1,6-dideoxy-dulcitol], the pIC50 was 4.48 with GS224 (120 h, GS224, passage 17, day 5, read-out: IC50 5 d); 4.96 in the data set with GS224 (GS224, passage 17, day 8, read-out: IC50 8 d); 4.50 in the data set with GS279peri (120 h, passage 13, day 5, read-out: IC50 5 d); 5.08 with GS279peri (passage 13, day 8, read-out: IC50 8 d); 4.73 with GS184 (120 h, GS184, passage 15, day 5, read-out: IC50 5 d); 5.71 in the data set on GS184 (GS184, passage 15, day 8, read-out: IC50 8 d). The pIC50 is 5.18 in the data set with GS245 (120 h, GS245, passage 13, day 5, read-out: IC50 5 d); 5.47 with GS245 (GS245, passage 13, day 8, read-out: IC50 8 d); 5.37 in the data set with GS186peri (setting [4]); 5.64 in the data set with GS186peri (setting [5]); 4.93 in the data set with GS257 (120 h, GS257, passage 13, day 5, read-out: IC50 5 d); 4.99 in the data set with GS257 (GS257, passage 13, day 8, read-out: IC50 8 d). In addition, the pIC50 with GS249 (120 h, GS249, passage 18, day 5, read-out: IC50 5 d) was 6.20; with GS249 (GS249, passage 18, day 8, read-out: IC50 8 d), 6.62; in the data set with GS203 (120 h, GS203, passage 20, day 5, read-out: IC50 5 d), 4.54; with GS203 (GS203, passage 20, day 8, read-out: IC50 8 d) it was 4.98; in the data set on GS304 (120 h, GS304, passage 14, day 5, read-out: IC50 5 d), 3.98; with GS304 (GS304, passage 14, day 8, read-out: IC50 8 d) it was 4.91. The pIC50 in the data set on GS281 (120 h, GS281, passage 13, day 5, read-out: IC50 5 d) was 4.98; in the data set on GS281 (GS281, passage 13, day 8, read-out: IC50 8 d), 5.26; in the data set on GS323peri, 5.32; with GS104peri (120 h, passage 22, day 5, read-out: IC50 5 d), 5.46; in the data set on GS104peri (passage 22, day 8, read-out: IC50 8 d) it was 6.24; with GS289 (120 h, GS289, passage 13, day 5, read-out: IC50 5 d), 5.16. The pIC50 is 5.49 in the data set on GS289 (GS289, passage 13, day 8, read-out: IC50 8 d); 5.46 in the data set on GS261 (120 h, GS261, passage 11, day 5, read-out: IC50 5 d); 5.73 in the data set with GS261 (GS261, passage 11, day 8, read-out: IC50 8 d); 5.34 with GS186core (setting [4]); 5.71 in the data set with GS186core (setting [5]); 4.38 in the data set on GS102peri (120 h, passage 18, day 5, read-out: IC50 5 d). The negative-log IC50 (pIC50) with GS102peri (passage 18, day 8, read-out: IC50 8 d) was 4.92; in the data set with GS359 (120 h, GS359, passage 14, day 5, read-out: IC50 5 d), 4.93; in the data set on GS359 (GS359, passage 14, day 8, read-out: IC50 8 d), 5.14; in the data set on GS324core (120 h, passage 16, day 5, read-out: IC50 5 d), 5.05; in the data set with GS324core (passage 16, day 8, read-out: IC50 8 d) it was 5.53; with GS279core (GS279core (1), passage 13, day 5), 5.44. In addition, the pIC50 with GS279core (GS279core (2), passage 16, day 5) was 5.12; in the data set on GS365 (120 h, GS365, passage 14, day 5, read-out: IC50 5 d), 4.83; with GS365 (GS365, passage 14, day 8, read-out: IC50 8 d), 5.24. The antitumor effect entry in data set [1] is recorded as “selective a vigorous antitumor effect”. Moreover, the solubility entry in data set [2] was “poorly soluble”. Further, the entries for the “enhancement of the cytotoxic effect” value in [3] (combined with radiation treatment) and in data set [3] (combined with temozolomide) were 30% and 50%, respectively. The “effect on cell viability (percentage of living cells vs non-treated)” value was “not effective” with U373 glioma cell line (0.1 μM and 0.3 μM DBD); “not viable” in the data set with U373 glioma cell line (300 μM DBD); “not effective” in the data set with T98 glioma cell line (0.1 μM and 0.3 μM DBD); “not viable” with T98 glioma cell line (300 μM DBD).

With `Cc1ccc(NC(=O)c2ccc(CN3CCN(C)CC3)cc2)cc1Nc1nccc(-c2cccnc2)n1` [Imatinib], the “enhancement factors overall, in combination with DBD” value in data set [3] (Tables 2 and 3, day 5 and day 8, all cultures) was “highest enhancement factors; also recorded: high enhancement factor, most cases”.

Source of the values: patent publication US20220142941A1, “COMBINATION THERAPEUTIC REGIMENS WITH 1,6-DIBROMO-1,6-DIDEOXY-DULCITOL” (Eleison Pharmaceuticals LLC, priority 2019, published 2022).
